Reference: ChEMBL document CHEMBL1149486, “Carbonic anhydrase inhibitors: Hypoxia-activatable sulfonamides incorporating disulfide bonds that target the tumor-associated isoform IX” (J Med Chem, 2006)

Target: Carbonic anhydrase 9 (Homo sapiens, UniProt Q16790)

Row | Ki [nM] | Compound
1 | 71 | NS(=O)(=O)c1ccc(CCNC(=O)CCSSCCC(=O)NCCc2ccc(S(N)(=O)=O)cc2)cc1
2 | 3.6 | NS(=O)(=O)c1nnc(NC(=O)CCS)s1
3 | 9.3 | Cn1nc(S(N)(=O)=O)s/c1=N/C(=O)CCSSCCC(=O)/N=c1/sc(S(N)(=O)=O)nn1C
